Reference: publication PMC3214022, “Plasmodium falciparum Parasites Are Killed by a Transition State Analogue of Purine Nucleoside Phosphorylase in a Primate Animal Model” (PLoS ONE, 2011)

Experiment: Weights, CBC, blood chemistry and signs of toxicity, Table S1 sheet PD-2 (infected Aotus, twice a day for seven days)
Assay type: in vivo, Aotus lemurinus lemurinus
Conditions: oral 10 mg/kg twice a day/7 days
Procedure: Laboratory bred Aotus lemurinus lemurinus monkeys (0.75–0.89 kg) were maintained as described. […] Blood samples were collected before the treatment started (t = 0), 0.05 h, 0.5 h, 1 h, 2 h, 6 h, 24 h, 48 h, and 6, 12 and 18 days after the first dose from each monkey and processed as described below. Pharmacokinetic parameters were calculated using PKSolver. For efficacy studies, Aotus monkeys were inoculated intravenously with 5×10^6 parasites of the FVO strain of P. falciparum in an approved treatment protocol. […] Parasitaemia was determined by Giemsa-stained thick blood smears prepared daily from the marginal ear vein [41]. Blood samples were collected from each monkey and transferred to tubes containing lithium heparin, centrifuged and both plasma and blood cells were frozen at −80 °C until analysis. Animals received a physical examination and blood chemistry profiles were monitored after treatment as described previously. Any monkey not responding appropriately to treatment was cured of its infection with mefloquine (40 mg kg^−1). […] The day of clearance is defined as the first of three consecutive days in which the thick blood films are parasite negative. The day of recrudescence is the first of three consecutive days of positive thick blood films after a period of clearance. Suppression is defined as a transient decrease in the parasite count post-treatment without clearance.

Structure (SMILES): Nc1nc2c(CN3CC(O)C(CO)C3)c[nH]c2c(=O)[nH]1 (stereo not shown) [BCX4945, 4′-deaza-1′-aza-2′-deoxy-1′-(9-methylene)-Immucillin-G]
- Mean Corpuscular Volume (25044 Male (ITM2), day 25): 86 fL
- Mean Hemoglobin Content (25044 Male (ITM2), day 25): 32.1 g/dL
- Mean Platelet Volume (25044 Male (ITM2), day 25): 12.7 fL
- Monocytes (%) (25044 Male (ITM2), day 25): 9.5%
- Monocytes (x 103/ul) (25044 Male (ITM2), day 25): 1.9 x 103/ul
- Platelets (25044 Male (ITM2), day 25): 166000 µL⁻¹
- Red Cell Distribution Width (25044 Male (ITM2), day 25): 22.2%
- Reticulocytes (25044 Male (ITM2), day 25): 2.6%
- WEIGHT (25044 Male (ITM2), day 25): 827 g
- Blood Urea Nitrogen (25044 Male (ITM2), day -10): 11.3 mg/dL
- Creatine (25044 Male (ITM2), day -10): 0.5 mg/dL
- Erythrocytes (25044 Male (ITM2), day -10): 5.93e+06 µL⁻¹
- Glutamate Pyruvate Transaminase (25044 Male (ITM2), day -10): 17.1 U/L
- Granulocytes (%) (25044 Male (ITM2), day -10): 13.3%
- Granulocytes (x 103/ul) (25044 Male (ITM2), day -10): 4.2 x 103/ul
- Hematocrit (25044 Male (ITM2), day -10): 44.6%
- Hemoglobin (25044 Male (ITM2), day -10): 15.8 g/dL
- Leucocytes (25044 Male (ITM2), day -10): 31300 µL⁻¹
- Lymphocytes (%) (25044 Male (ITM2), day -10): 76.1%
- Lymphocytes (x 103/ul) (25044 Male (ITM2), day -10): 23.8 x 103/ul
- Mean Corpuscular Hemoglobin (25044 Male (ITM2), day -10): 26.7 pg
- Mean Corpuscular Volume (25044 Male (ITM2), day -10): 75.2 fL
- Mean Hemoglobin Content (25044 Male (ITM2), day -10): 35.5 g/dL
- Mean Platelet Volume (25044 Male (ITM2), day -10): 13.1 fL
- Monocytes (%) (25044 Male (ITM2), day -10): 10.6%
- Monocytes (x 103/ul) (25044 Male (ITM2), day -10): 3.3 x 103/ul
- Platelets (25044 Male (ITM2), day -10): 236000 µL⁻¹
- Red Cell Distribution Width (25044 Male (ITM2), day -10): 13%
- Reticulocytes (25044 Male (ITM2), day -10): 1.2%
- WEIGHT (25044 Male (ITM2), day -10): 814 g
- Blood Urea Nitrogen (26027 Male (ITM3), day 8): 12.75 mg/dL
- Creatine (26027 Male (ITM3), day 8): 0.5 mg/dL
- Erythrocytes (26027 Male (ITM3), day 8): 4.51e+06 µL⁻¹
- Glutamate Pyruvate Transaminase (26027 Male (ITM3), day 8): 28.1 U/L
- Granulocytes (%) (26027 Male (ITM3), day 8): 18.4%
- Granulocytes (x 103/ul) (26027 Male (ITM3), day 8): 2.2 x 103/ul
- Hematocrit (26027 Male (ITM3), day 8): 36.2%
- Hemoglobin (26027 Male (ITM3), day 8): 13.0 g/dL
- Leucocytes (26027 Male (ITM3), day 8): 11800 µL⁻¹
- Lymphocytes (%) (26027 Male (ITM3), day 8): 70.2%
- Lymphocytes (x 103/ul) (26027 Male (ITM3), day 8): 8.3 x 103/ul
- Mean Corpuscular Hemoglobin (26027 Male (ITM3), day 8): 28.9 pg
- Mean Corpuscular Volume (26027 Male (ITM3), day 8): 80.2 fL
- Mean Hemoglobin Content (26027 Male (ITM3), day 8): 36 g/dL
- Mean Platelet Volume (26027 Male (ITM3), day 8): 11.7 fL
- Monocytes (%) (26027 Male (ITM3), day 8): 11.4%
- Monocytes (x 103/ul) (26027 Male (ITM3), day 8): 1.3 x 103/ul
- Platelets (26027 Male (ITM3), day 8): 216000 µL⁻¹
- Red Cell Distribution Width (26027 Male (ITM3), day 8): 11.8%
- Reticulocytes (26027 Male (ITM3), day 8): 1.4%
- WEIGHT (26027 Male (ITM3), day 8): 890 g
- Blood Urea Nitrogen (26027 Male (ITM3), day 12): 12.9 mg/dL
- Creatine (26027 Male (ITM3), day 12): 0.5 mg/dL
- Erythrocytes (26027 Male (ITM3), day 12): 4.4e+06 µL⁻¹
- Glutamate Pyruvate Transaminase (26027 Male (ITM3), day 12): 33.4 U/L
- Granulocytes (%) (26027 Male (ITM3), day 12): 26.5%
- Granulocytes (x 103/ul) (26027 Male (ITM3), day 12): 4.8 x 103/ul
- Hematocrit (26027 Male (ITM3), day 12): 36.1%
- Hemoglobin (26027 Male (ITM3), day 12): 13.1 g/dL
- Leucocytes (26027 Male (ITM3), day 12): 18200 µL⁻¹
- Lymphocytes (%) (26027 Male (ITM3), day 12): 67.6%
- Lymphocytes (x 103/ul) (26027 Male (ITM3), day 12): 12.3 x 103/ul
- Mean Corpuscular Hemoglobin (26027 Male (ITM3), day 12): 29.8 pg
- Mean Corpuscular Volume (26027 Male (ITM3), day 12): 82.1 fL
- Mean Hemoglobin Content (26027 Male (ITM3), day 12): 36.3 g/dL
- Mean Platelet Volume (26027 Male (ITM3), day 12): 12.2 fL
- Monocytes (%) (26027 Male (ITM3), day 12): 5.9%
- Monocytes (x 103/ul) (26027 Male (ITM3), day 12): 1.1 x 103/ul
- Platelets (26027 Male (ITM3), day 12): 339000 µL⁻¹
- Red Cell Distribution Width (26027 Male (ITM3), day 12): 12.1%
- Reticulocytes (26027 Male (ITM3), day 12): 2.6%
- WEIGHT (26027 Male (ITM3), day 12): 890 g
- Blood Urea Nitrogen (26027 Male (ITM3), day 15): 17.15 mg/dL
- Creatine (26027 Male (ITM3), day 15): 0.512 mg/dL
- Erythrocytes (26027 Male (ITM3), day 15): 4.77e+06 µL⁻¹
- Glutamate Pyruvate Transaminase (26027 Male (ITM3), day 15): 27.1 U/L
- Granulocytes (%) (26027 Male (ITM3), day 15): 32.6%
- Granulocytes (x 103/ul) (26027 Male (ITM3), day 15): 4 x 103/ul
- Hematocrit (26027 Male (ITM3), day 15): 40.6%
- Hemoglobin (26027 Male (ITM3), day 15): 14.5 g/dL
- Leucocytes (26027 Male (ITM3), day 15): 12200 µL⁻¹
- Lymphocytes (%) (26027 Male (ITM3), day 15): 63%
- Lymphocytes (x 103/ul) (26027 Male (ITM3), day 15): 7.7 x 103/ul
- Mean Corpuscular Hemoglobin (26027 Male (ITM3), day 15): 30.4 pg
- Mean Corpuscular Volume (26027 Male (ITM3), day 15): 85 fL
- Mean Hemoglobin Content (26027 Male (ITM3), day 15): 35.8 g/dL
- Monocytes (%) (26027 Male (ITM3), day 15): 4.4%
- Monocytes (x 103/ul) (26027 Male (ITM3), day 15): 0.5 x 103/ul
- Platelets (26027 Male (ITM3), day 15): 245000 µL⁻¹
- Red Cell Distribution Width (26027 Male (ITM3), day 15): 18.5%
- Reticulocytes (26027 Male (ITM3), day 15): 3.1%
